From publication PMC2749524 (Cancer research, 2009)

Legend:
[1] = test system: Src family kinases / Focal Adhesion Kinase phosphorylation in U87MG cells; assay: Western blot of phospho-Src, phospho-FAK and β3 in U87MG cell lysates; type: cell-based, human; details: 100 nM
[2] = test system: αVβ3 focal adhesions in U87MG cells; assay: Immunofluorescence of dimerized αVβ3; type: cell-based, human; details: 100 nM, 3 h, U87MG on fibronectin
[3] = test system: αVβ3 integrin on U87MG cells; assay: Flow cytometry of surface αVβ3 integrin expression; type: cell-based, human; details: 100 nM, 6 or 24 h, FACS, LM609 antibody, samples in duplicate
[4] = test system: U87MG xenografts (αVβ3 integrin activity); assay: microPET/CT tumor uptake of [^64Cu]DOTA–c; type: in vivo, SCID mice; details: 72 h; for reduction of [^64Cu]DOTA–c(RGDfK) tumor uptake: vs vehicle controls, PET 15 h post injection
[5] = test system: U87MG xenografts; assay: U87MG xenograft tumor growth; type: in vivo, SCID mice
[6] = test system: U87MG xenografts; assay: Histology and immunohistochemistry of frozen tumor sections; type: in vivo, SCID mice; details: 95 mg/kg, 72 h
[7] = test system: U87MG xenografts (tumor glucose metabolism); assay: FDG microPET/CT tumor uptake in U87MG xenografts

| SMILES | total β3 levels ([1]; 6 or 24 h) | FAK phosphorylation at tyrosine 397 ([1]; 6 h) | FAK phosphorylation at tyrosine 861 ([1]; 6 h) | SFK phosphorylation at tyrosine 416 ([1]; 6 h) | αVβ3 clustering in focal adhesion complexes [2] | total dimerized cell surface αVβ3 protein level [3] | reduction of [^64Cu]DOTA–c(RGDfK) tumor uptake ([4]; 72 mg/kg daily gavage) [%] | reduction of [^64Cu]DOTA–c(RGDfK) tumor uptake ([4]; 95 mg/kg daily gavage) [%] | tracer distribution and organ uptake, treated vs untreated animals ([4]; 95 mg/kg, dynamic PET, normal organs, except U87 xenografts) | difference in tumor size between control and treated animals ([5]; after 10 consecutive days of treatment) | difference in tumor size at the time of PET imaging ([5]; day 3, p=0.1272) | tumor viability and vascularization (H&E, CD31) [6] | phospho-FAK (Y861) staining in tumors ([6]; immunohistochemistry, relative to control) | αVβ3 staining in tumors ([6]; treated vs control, LM609 antibody) | change in tumor FDG uptake ([7]; 95 mg/kg, 72 h, p=0.1704) | tumor FDG uptake in vehicle controls ([7]; U87MG xenograft, 7–10 MBq FDG, 1 h uptake, mean ± SD) [% ID/g] |
| --- | --- | --- | --- | --- | --- | --- | --- | --- | --- | --- | --- | --- | --- | --- | --- | --- |
| Cc1nc(Nc2ncc(C(=O)Nc3c(C)cccc3Cl)s2)cc(N2CCN(CCO)CC2)n1 [dasatinib] | nor did total β3 levels decrease | decrease | target inhibition | target inhibition | no longer clustered in focal adhesion complexes | did not change relative to control | 39 | 59 | virtually identical | six-fold | no appreciable difference | remained viable and vascularized | reduced | no difference | no significant change |  |
| OC[C@H]1OC(O)[C@H]([18F])[C@@H](O)[C@@H]1O (stereo partly shown) [FDG, [^18F]fluorodeoxyglucose] |  |  |  |  |  |  |  |  |  |  |  |  |  |  |  | 10.39±1.04 |
